Test results published in US12037344B2, “NLRP3 modulators” (INNATE TUMOR IMMUNITY, INC., priority 2018, dated 2024).
Where two headings read alike, the source gives them in different places.

Columns and labels:
THP-1 cells = test: Measurement of IL-1β production, hTRF protocol (second alternative procedure), THP-1 cells; assay type: cell-based, human
Outline: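 THP-1 cells differentiated overnight with 50 ng/ml PMA, then plated at 50,000 cells/well in RPMI with 2% FBS onto serial compound dilutions (top final concentration 10 μM) for 2 hours at 37° C. Supernatant IL-1β measured by hTRF (antibodies at 1:40, overnight at 4° C), read at 665/615 nm against a standard curve.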

TLR7 = molecular target: T1, TLR7 (Homo sapiens, UniProt Q9NYK1); test: In vitro human TLR7 binding reporter assay (HEK-Blue, NF-kB/AP1-inducible SEAP); assay type: cell-based; settings: read-out: TLR7 Agonist EC50
T1 construct: human HEK-Blue cells co-expressing a TLR7 or TLR8 gene
T1 sequence (Q9NYK1 27-1049): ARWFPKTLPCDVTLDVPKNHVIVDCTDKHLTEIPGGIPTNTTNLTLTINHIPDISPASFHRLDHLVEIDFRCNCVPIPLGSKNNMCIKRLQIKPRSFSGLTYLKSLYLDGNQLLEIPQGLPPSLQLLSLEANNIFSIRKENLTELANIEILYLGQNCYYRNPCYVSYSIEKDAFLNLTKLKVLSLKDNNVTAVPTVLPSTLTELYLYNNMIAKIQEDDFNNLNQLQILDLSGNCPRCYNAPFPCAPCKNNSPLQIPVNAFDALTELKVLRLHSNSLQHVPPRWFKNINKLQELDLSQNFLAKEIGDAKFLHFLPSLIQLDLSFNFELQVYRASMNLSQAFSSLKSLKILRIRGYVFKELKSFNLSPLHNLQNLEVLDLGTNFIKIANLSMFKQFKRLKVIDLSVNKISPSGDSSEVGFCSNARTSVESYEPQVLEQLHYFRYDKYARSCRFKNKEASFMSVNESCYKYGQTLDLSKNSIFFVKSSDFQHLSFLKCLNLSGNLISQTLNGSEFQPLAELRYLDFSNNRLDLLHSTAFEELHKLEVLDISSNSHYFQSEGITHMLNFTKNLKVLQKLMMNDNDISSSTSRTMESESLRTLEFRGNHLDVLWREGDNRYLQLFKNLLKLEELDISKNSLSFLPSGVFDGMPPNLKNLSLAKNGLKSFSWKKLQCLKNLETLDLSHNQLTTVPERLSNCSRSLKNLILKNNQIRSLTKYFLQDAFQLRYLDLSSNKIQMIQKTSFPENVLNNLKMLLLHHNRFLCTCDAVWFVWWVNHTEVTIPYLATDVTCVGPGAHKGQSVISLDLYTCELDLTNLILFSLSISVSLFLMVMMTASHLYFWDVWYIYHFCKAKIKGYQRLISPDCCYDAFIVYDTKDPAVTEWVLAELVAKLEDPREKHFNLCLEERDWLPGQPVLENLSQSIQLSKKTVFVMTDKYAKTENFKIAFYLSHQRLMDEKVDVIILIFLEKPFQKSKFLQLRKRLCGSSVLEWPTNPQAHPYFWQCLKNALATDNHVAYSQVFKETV
Outline: (§1)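 Cells are seeded and grown for 24 h. Compounds or DMSO are then added and incubated 18 h at 37 °C. Quanti-Blue is added, and SEAP is read after thirty minutes. EC50 values are normalized, with RLU from 50 μM reference standard setting 100% Ymax.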

TLR8 = molecular target: T2, TLR8 (Homo sapiens, UniProt Q9NR97); test: In vitro human TLR8 binding reporter assay (HEK-Blue, NF-kB/AP1-inducible SEAP); assay type: cell-based; settings: read-out: TLR8 Agonist EC50
T2 construct: human HEK-Blue cells co-expressing a TLR7 or TLR8 gene
T2 sequence (Q9NR97 27-1041): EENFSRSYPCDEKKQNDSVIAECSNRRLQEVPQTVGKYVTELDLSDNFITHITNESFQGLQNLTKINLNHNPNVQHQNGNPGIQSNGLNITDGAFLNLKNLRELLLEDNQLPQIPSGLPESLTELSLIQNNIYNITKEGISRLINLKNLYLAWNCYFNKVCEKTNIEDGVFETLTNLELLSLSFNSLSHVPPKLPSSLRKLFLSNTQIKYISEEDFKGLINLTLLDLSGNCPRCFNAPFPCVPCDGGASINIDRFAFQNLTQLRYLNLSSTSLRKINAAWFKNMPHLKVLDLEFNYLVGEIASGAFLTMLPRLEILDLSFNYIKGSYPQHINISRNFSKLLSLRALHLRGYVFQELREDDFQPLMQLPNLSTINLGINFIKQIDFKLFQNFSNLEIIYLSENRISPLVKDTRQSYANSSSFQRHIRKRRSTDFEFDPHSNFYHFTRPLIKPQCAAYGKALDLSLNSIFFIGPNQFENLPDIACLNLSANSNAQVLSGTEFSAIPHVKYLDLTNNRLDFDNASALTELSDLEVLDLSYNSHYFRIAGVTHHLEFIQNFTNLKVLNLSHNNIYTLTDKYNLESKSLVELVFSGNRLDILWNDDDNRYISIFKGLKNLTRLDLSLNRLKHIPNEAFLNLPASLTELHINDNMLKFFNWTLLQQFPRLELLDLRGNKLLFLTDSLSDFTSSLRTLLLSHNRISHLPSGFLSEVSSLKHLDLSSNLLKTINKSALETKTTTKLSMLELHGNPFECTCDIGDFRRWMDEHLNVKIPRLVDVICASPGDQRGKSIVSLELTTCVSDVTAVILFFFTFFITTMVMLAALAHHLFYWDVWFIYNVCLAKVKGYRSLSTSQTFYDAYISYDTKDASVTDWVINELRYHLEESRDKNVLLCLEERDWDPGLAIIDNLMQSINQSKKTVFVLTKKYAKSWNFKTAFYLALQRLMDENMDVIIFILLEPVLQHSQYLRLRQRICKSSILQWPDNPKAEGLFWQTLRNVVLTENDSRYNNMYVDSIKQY
Outline: as §1

[1] = Homo sapiens, THP-1, IL-1β production, human, read-out: NLRP3 hILIB EC50
[2] = Homo sapiens, THP-1, IL-1β production, human cells, read-out: NLRP3 hILIB EC50

Row | Compound | EC50 (THP-1 cells; [1]) [µM] | EC50 (TLR7; activity range class) [µM] | EC50 (TLR8; activity range class) [µM] | EC50 (THP-1 cells; [2]) [µM] | EC50 (TLR7; activity range) [µM] | EC50 (TLR8; activity range) [µM] | EC50 (THP-1 cells; Homo sapiens, THP-1, read-out: NLRP3 hILIB EC50) [µM] | EC50 (THP-1 cells; IL-1β production, human, read-out: NLRP3 hILIB EC50) [µM]
1 | CC(=O)NC(C)Cn1cc2c(N)nc3cc(-c4ccn[nH]4)ccc3c2n1 (stereo not drawn) [Example 254] | 20.3 | > 100 | > 100 |  |  |  |  | 
2 | Nc1nc2cc(-c3ccn[nH]3)ccc2c2cn(CCF)nc12 [Example 193] | 0.24 | 20 to 100 | 20 to 100 |  |  |  |  | 
3 | Nc1nc2cc(-c3cc[nH]n3)ccc2c2[nH]c(CN[C@H]3CCOC3)cc12 [Example 421] |  |  |  | 0.46 | > 100 | > 100 |  | 
4 | NCCn1cc2c(N)nc3cc(-c4cc[nH]n4)ccc3c2n1 [Example 149, 2-(2-aminoethyl)-7-(1H-pyrazol-3-yl)-2H-pyrazolo[4,3-c]quinolin-4-amine] | 0.38 | > 100 | > 100 |  |  |  |  | 
5 | CC(C(=O)NCC(F)F)n1cc2c(N)nc3cc(-c4ccn[nH]4)ccc3c2n1 (stereo not drawn) [Example 567] |  |  |  | 0.97 | > 100 | > 100 |  | 
6 | COCCNCc1cc2c(N)nc3cc(-c4cc[nH]n4)ccc3c2[nH]1 [Example 419] |  |  |  | 0.35 | > 100 | > 100 |  | 
7 | CC(CC(=O)NCC1CCOCC1)n1cc2c(N)nc3cc(-c4cc[nH]n4)ccc3c2n1 (stereo not drawn) [Example 624] |  |  |  | 19.9 | > 100 | > 100 |  | 
8 | CS(=O)(=O)CCCn1cc2c(n1)c(N)nc1cc(-c3cc[nH]n3)ccc12 [Example 171] | 0.6 | > 100 | > 100 |  |  |  |  | 
9 | Nc1nc2cc(-c3cc[nH]n3)ccc2c2c1cnn2C1COC1 [Example 242] | 0.68 | > 100 | > 100 |  |  |  |  | 
10 | CC(Cn1cc2c(N)nc3cc(-c4ccn[nH]4)ccc3c2n1)NS(C)(=O)=O (stereo not drawn) [Example 301] | 1.4 | > 100 | > 100 |  |  |  |  | 
11 | CNC(=O)CCn1cc2c(n1)c(N)nc1cc(-c3cc[nH]n3)ccc12 [Example 535] |  |  |  | 0.96 | > 100 | > 100 |  | 
12 | CC(C(=O)N1CCOCC1)n1cc2c(N)nc3cc(-c4ccn[nH]4)ccc3c2n1 (stereo not drawn) [Example 570] |  |  |  | 5.13 | > 100 | > 100 |  | 
13 | CCCCn1cc2c(N)nc3cc(-c4cc[nH]n4)ccc3c2n1 [Example 305] | 0.29 | > 100 | > 100 |  |  |  |  | 
14 | Nc1nc2cc(-c3cc[nH]n3)ccc2c2nn([C@H]3CC[C@@H](O)CC3)cc12 [Example 394] | 0.46 | > 100 | > 100 |  |  |  |  | 
15 | CC(=O)NCCCn1cc2c(n1)c(N)nc1cc(-c3cc[nH]n3)ccc12 [Example 126] | 5.34 | > 100 | > 100 |  |  |  |  | 
16 | Nc1nc2cc(-c3ccn[nH]3)ccc2c2oc(CCCO)nc12 [Example 147, 3-[4-amino-7-(1H-pyrazol-3-yl)-[1,3]oxazolo[4,5-c]quinolin-2-yl]propan-1-ol] |  | > 100 | > 100 |  |  |  | 6.09 | 
17 | C[C@H](O)Cn1ncc2c(N)nc3cc(-c4cc[nH]n4)ccc3c21 [Example 401] |  |  |  | 2.66 | > 100 | > 100 |  | 

Row | Compound | EC50 (THP-1 cells; [1]) [µM] | EC50 (TLR7; activity range class) [µM] | EC50 (TLR8; activity range class) [µM] | EC50 (THP-1 cells; [2]) [µM] | EC50 (TLR7; activity range) [µM] | EC50 (TLR8; activity range) [µM] | EC50 (THP-1 cells; Homo sapiens, THP-1, read-out: NLRP3 hILIB EC50) [µM] | EC50 (THP-1 cells; IL-1β production, human, read-out: NLRP3 hILIB EC50) [µM]
18 | CC(Cn1cc2c(N)nc3cc(-c4ccn[nH]4)ccc3c2n1)NC(=O)C(C)(C)C#N (stereo not drawn) [Example 270] | 5.18 | > 100 | > 100 |  |  |  |  | 
19 | Nc1nc2cc(-n3cccn3)ccc2c2cn(CCN3CCCC3=O)nc12 [Example 11] | 2.09 | 20 to 100 | > 100 |  |  |  |  | 
20 | Nc1nc2cc(-c3cc[nH]n3)ccc2c2cn(CCNC(=O)c3ccc(OCc4ccccc4)cn3)nc12 [Example 58] | 0.3 | > 100 | 1 to 20 |  |  |  |  | 
21 | N#CCCCCn1cc2c(N)nc3cc(-n4cccn4)ccc3c2n1 [Example 559] |  |  |  | 0.6 | > 100 | > 100 |  | 
22 | Nc1nc2cc(-c3cc[nH]n3)ccc2c2c1cnn2C1CCOC1 (stereo not drawn) [Example 240] | 0.62 | > 100 | > 100 |  |  |  |  | 
23 | Nc1nc2cc(-c3ccn[nH]3)ccc2c2nn(CC3(C(=O)N4CCCC4)CC3)cc12 [Example 607] |  |  |  | 13.4 | > 100 | > 100 |  | 
24 | COCCCn1ncc2c(N)nc3cc(-c4cc[nH]n4)ccc3c21 [Example 228] | 0.3 | > 100 | > 100 |  |  |  |  | 
25 | CC(Cn1cc2c(N)nc3cc(-c4ccn[nH]4)ccc3c2n1)NC(=O)C(C)(C)F (stereo not drawn) [Example 273] | 5.16 | > 100 | > 100 |  |  |  |  | 
26 | NC(=O)CCn1cc2c(n1)c(N)nc1cc(-c3ccn[nH]3)ccc12 [Example 189] | 0.59 | > 100 | > 100 |  |  |  |  | 
27 | Nc1nc2cc(-c3cc[nH]n3)ccc2c2cn(CCNC(=O)c3ccc(F)cc3)nc12 [Example 42] | 0.67 | > 100 | > 100 |  |  |  |  | 
28 | Nc1nc2cc(-c3cc[nH]n3)ccc2c2cn(CCNC(=O)c3ccncn3)nc12 [Example 75] | 0.64 | > 100 | > 100 |  |  |  |  | 
29 | Nc1nc2cc(-c3cc[nH]n3)ccc2c2nn(Cc3cscn3)cc12 [Example 362] | 0.07 | > 100 | > 100 |  |  |  |  | 
30 | Nc1nc2cc(-c3cc[nH]n3)ccc2c2nn(CC(O)CO)cc12 (stereo not drawn) [Example 234] | 0.56 | > 100 | > 100 |  |  |  |  | 
31 | Nc1nc2cc(-c3cc[nH]n3)ccc2c2nn(CCN3Cc4ccc(F)cc4C3=O)cc12 [Example 205, 2-(2-(4-amino-7-(1H-pyrazol-3-yl)-2H-pyrazolo[4,3-c]quinolin-2-yl)ethyl)-6-fluoroisoindolin-1-one] | 2.04 | > 100 | > 100 |  |  |  |  | 
32 | Nc1nc2cc(-c3cc[nH]n3)ccc2c2nn(C3CCC(O)C3)cc12 (single isomer, unassigned) [Example 342] |  | > 100 | > 100 |  |  |  |  | 0.34
33 | Cc1c(CN[C@H]2CCOC2)[nH]c2c1c(N)nc1cc(-c3cc[nH]n3)ccc12 [Example 469] |  |  |  | 0.84 | > 100 | > 100 |  | 
34 | Nc1nc2cc(-c3cc[nH]n3)ccc2c2cn(CCNC(=O)c3ccc(OC(F)(F)F)cn3)nc12 [Example 67] | 0.38 | > 100 | > 100 |  |  |  |  | 
